Measured values from BindingDB's records for doi:10.1021/jm00121a012 (Takeda Chemical Industries, 1989).

Target: Platelet-activating factor receptor (Oryctolagus cuniculus)
Test: Inhibition of rabbit platelet aggregation induced by platelet activating factor (PAF)

For `CCCCCCCCCCCCCCCCCCNC(=O)OCC(COC(=O)N(CC[N+](C)(C)C)C(=O)CC)OC` (stereo not drawn), which IC50 is on record?
Its IC50 is 5.6 µM.

Which IC50 does the source give for `CCCCCCCCCCCCCCCCCCNC(=O)OCC(COC(=O)N(Cc1cccc[n+]1CCC)C(C)=O)OC` (stereo not drawn) here?
Its IC50 is 0.094 µM.

Which IC50 does the source give for `CCCCCCCCCCCCCCCCCCNC(=O)OCC(COC(=O)N(CC[N+](C)(C)C)C(=O)N(C)C)OC` (stereo not drawn) here?
The IC50 was 5.8 µM.

With `CCCCCCCCCCCCCCCCCCNC(=O)OCC(COC(=O)N(CC[N+](C)(C)C)C(=O)CCC)OC` (stereo not drawn) as the molecule, how does the IC50 read?
The IC50 was 7.8 µM.

For `CCCCCCCCCCCCCCCCCCNC(=O)OCC(COC(=O)N(Cc1csc[n+]1CC)C(C)=O)OC` (stereo not drawn), which IC50 is on record?
Its IC50 is 0.092 µM.

For `CCCCCCCCCCCCCCCCCCNC(=O)OCC(COC(=O)N(Cc1cccc[n+]1C)C(C)=O)OC` (stereo not drawn), which IC50 is on record?
Its IC50 is 0.2 µM.

`CCCCCCCCCCCCCCCCCCOCC(COC(=O)NCC[N+](C)(C)C)OC(C)=O` (stereo not drawn) was tested. Which IC50 did it give?
The IC50 was 8.4 µM.

For `CCCCCCCCCCCCCCCCCCNC(=O)OCC(COC(=O)N(CC[N+](C)(C)C)C(C)=O)OC` (stereo not drawn), which IC50 is on record?
Its IC50 is 1.5 µM.

With `CCCCCCCCCCCCCCCCCCNC(=O)OCC(COC(=O)N(CC[N+]1(C)CCCC1)C(C)=O)OC` (stereo not drawn) as the molecule, how does the IC50 read?
The IC50 was 1.1 µM.

`CCCCCCCCCCCCCCCCCCNC(=O)OCC(COC(=O)N(C)CC[N+](C)(C)C)OC` (stereo not drawn) was tested. Which IC50 did it give?
The IC50 was 8.2 µM.

With `CCCCCCCCCCCCCCCCCCOCC(COC(=O)N(CC[N+](C)(C)C)C(C)=O)OC(C)=O` (stereo not drawn) as the molecule, how does the IC50 read?
The IC50 was 0.88 µM.

For `CCCCCCCCCCCCCCCCCCNC(=O)OCC(COC(=O)N(CC[N+](C)(C)C)C(=O)OC)OC` (stereo not drawn), which IC50 is on record?
The IC50 was 2.3 µM.

How did the IC50 turn out when `CCCCCCCCCCCCCCCCCCNC(=O)OCC(COC(=O)NCC[N+](C)(C)C)OC` (stereo not drawn) was run?
The IC50 was 14 µM.

Which IC50 does the source give for `CCCCCCCCCCCCCCCCCCNC(=O)OCC(COC(=O)N(CC[N+]1(C)CCOCC1)C(C)=O)OC` (stereo not drawn) here?
Its IC50 is 9.2 µM.

For `CCCCCCCCCCCCCCCCCCNC(=O)OCC(COC(=O)N(CC[N+](C)(C)C)C(=O)N1CCCC1)OC` (stereo not drawn), which IC50 is on record?
The IC50 was 8.6 µM.

`CCCCCCCCCCCCCCCCCCNC(=O)OCC(COC(=O)N(Cc1csc[n+]1C)C(C)=O)OC` (stereo not drawn) was tested. Which IC50 did it give?
Its IC50 is 0.1 µM.

Which IC50 does the source give for `CCCCCCCCCCCCCCCCCCNC(=O)OCC(COC(=O)N(CC[N+](C)(C)C)C(=O)NCCC)OC` (stereo not drawn) here?
Its IC50 is over 30 µM.

Which IC50 does the source give for `CCCCCCCCCCCCCCCCCCNC(=O)OCC(COC(=O)N(CCC[N+](C)(C)C)C(C)=O)OC` (stereo not drawn) here?
The IC50 was 8.5 µM.
